This note sets out measurements from patent US7514443B2, “Substituted pyrazolo[1,5-a]pyrimidines as inhibitors of metabotropic glutamate receptors” (Hoffmann-La Roche Inc., priority 2003, dated 2009).

`Cc1cc(-c2ncn3c(C(F)(F)F)cc(-c4ccc(C(F)(F)F)c(OCC(F)(F)F)c4)nc23)ccn1` [Example 8.33, 8-(2-Methyl-pyridin-4-yl)-2-[3-(2,2,2-trifluoro-ethoxy)-4-trifluoromethyl-phenyl]-4-trifluoromethyl-imidazo[1,5-a]pyrimidine]: the melting point (usually the temperature of the solid-liquid transition) was 189 °C.
Compound `N#Cc1cnn2c(C(F)(F)F)cc(-c3ccccc3Cl)nc12` [Example 1.3, 5-(2-Chloro-phenyl)-7-trifluoromethyl-pyrazolo[1,5-a]pyrimidine-3-carbonitrile] had a melting point of 169 °C.
In turn, `N#Cc1ncn2c(C(F)(F)F)cc(-c3ccccc3Cl)nc12` [Example 5.6, 2-(2-Chloro-phenyl)-4-trifluoromethyl-imidazo[1,5-a]pyrimidine-8-carbonitrile] displayed a melting point of 180 °C.
As for `Cc1cc(-c2cnn3c(C(F)(F)F)cc(-c4ccc(Br)cc4)nc23)ccn1` [Example 4.56, 5-(4-Bromo-phenyl)-3-(2-methyl-pyridin-4-yl)-7-trifluoromethyl-pyrazolo[1,5-a]pyrimidine], the figure is 226 °C; as for `FC(F)c1cc(-c2ccc(C(F)(F)F)cc2)nc2c(-c3ccncc3)cnn12` [Example 9.1, 7-Difluoromethyl-3-pyridin-4-yl-5-(4-trifluoromethyl-phenyl)-pyrazolo[1,5-a]pyrimidine], 222 °C.
`Cc1ccc(-c2cc(C(F)(F)F)n3cnc(C#N)c3n2)cc1` [Example 5.4, 2-(4-Methyl-phenyl)-4-trifluoromethyl-imidazo[1,5-a]pyrimidine-8-carbonitrile] registered a melting point of 197 °C.
As for `N#Cc1cnn2c(C(F)(F)F)cc(-c3ccncc3)nc12` [Example 1.22, 5-Pyridin-4-yl-7-trifluoromethyl-pyrazolo[1,5-a]pyrimidine-3-carbonitrile], the figure is 233 °C; as for `Cc1cc(-c2cnn3c(C(F)(F)F)cc(-c4ccc(Cl)c(Cl)c4)nc23)cc(C)n1` [Example 4.22, 5-(3,4-Dichloro-phenyl)-3-(2,6-dimethyl-pyridin-4-yl)-7-trifluoromethyl-pyrazolo[1,5-a]pyrimidine], 281 °C; as for `Cc1cc(-c2ncn3c(C(F)(F)F)cc(-c4ccc(C(F)(F)F)cc4)nc23)ccn1` [Example 8.24, 8-(2-Methyl-pyridin-4-yl)-4-trifluoromethyl-2-(4-trifluoromethyl-phenyl)-imidazo[1,5-a]pyrimidine], 257 °C.
As for `Fc1ccc(-c2cc(C(F)(F)F)n3ncc(-c4cccnc4)c3n2)cc1Cl` [Example 4.6, 5-(3-Chloro-4-fluoro-phenyl)-3-pyridin-3-yl-7-trifluoromethyl-pyrazolo[1,5-a]pyrimidine], the figure is 190 °C; as for `Cc1cc(-c2ncn3c(C(F)(F)F)cc(-c4ccc(Cl)cc4)nc23)ccn1` [Example 8.20, 2-(4-Chloro-phenyl)-8-(2-methyl-pyridin-4-yl)-4-trifluoromethyl-imidazo[1,5-a]pyrimidine], 232 °C.
Compound `N#Cc1cnn2c(C(F)(F)F)cc(-c3ccccc3F)nc12` [Example 1.11, 5-(2-Fluoro-phenyl)-7-trifluoromethyl-pyrazolo[1,5-a]pyrimidine-3-carbonitrile] came in with a melting point of 165 °C.
The compound `Cc1cc(-c2ncn3c(C(F)(F)F)cc(-c4ccc(Br)cc4)nc23)ccn1` [Example 8.36, 2-(4-Bromo-phenyl)-8-(2-methyl-pyridin-4-yl)-4-trifluoromethyl-imidazo[1,5-a]pyrimidine] gave a melting point of 249 °C.
As for `FC(F)(F)c1ccc(-c2cc(C(F)(F)F)n3ncc(-c4ccncc4)c3n2)cc1C(F)(F)F` [Example 4.53, 5-(3,4-Bis-trifluoromethyl-phenyl)-3-pyridin-4-yl-7-trifluoromethyl-pyrazolo[1,5-a]pyrimidine], the figure is 209 °C; as for `N#Cc1ncn2c(C(F)(F)F)cc(-c3cccnc3)nc12` [Example 5.26, 2-Pyridin-3-yl-4-trifluoromethyl-imidazo[1,5-a]pyrimidine-8-carbonitrile], 222 °C.
As for `FC(F)(F)c1ccc(-c2cc(C(F)(F)F)n3ncc(-c4cccnc4)c3n2)cc1` [Example 4.14, 5-(4-Trifluoromethyl-phenyl)-3-pyridin-3-yl-7-trifluoromethyl-pyrazolo[1,5-a]pyrimidine], the figure is 163 °C.
As for `FC(F)(F)COc1cc(-c2cc(C(F)(F)F)n3ncc(-c4ccncc4)c3n2)ccc1C(F)(F)F` [Example 4.50, 3-Pyridin-4-yl-5-[3-(2,2,2-trifluoro-ethoxy)-4-trifluoromethyl-phenyl]-7-trifluoromethyl-pyrazolo[1,5-a]pyrimidine], the figure is 251 °C.
Take `N#Cc1cnn2c(C(F)(F)F)cc(-c3ccc(C(F)(F)F)c(F)c3)nc12` [Example 1.17, 5-(3-Fluoro-4-trifluoromethyl-phenyl)-7-trifluoromethyl-pyrazolo[1,5-a]pyrimidine-3-carbonitrile]: the melting point is 184 °C.
As for `Cc1cc(-c2cnn3c(C(F)(F)F)cc(-c4ccc(Cl)c(C)c4)nc23)ccn1` [Example 4.30, 5-(4-Chloro-3-methyl-phenyl)-3-(2-methyl-pyridin-4-yl)-7-trifluoromethyl-pyrazolo[1,5-a]pyrimidine], the figure is 240 °C; as for `Cc1cc(-c2cnn3c(C(F)(F)F)cc(-c4ccc(F)c(Cl)c4)nc23)ccn1` [Example 4.31, 5-(3-Chloro-4-fluoro-phenyl)-3-(2-methyl-pyridin-4-yl)-7-trifluoromethyl-pyrazolo[1,5-a]pyrimidine], 292 °C; as for `Cc1cc(-c2cnn3c(C(F)(F)F)cc(-c4ccc(C)c(C(F)(F)F)c4)nc23)cc(C)n1` [Example 4.28, 5-(4-Methyl-3-trifluoromethyl-phenyl)-3-(2,6-dimethyl-pyridin-4-yl)-7-trifluoromethyl-pyrazolo[1,5-a]pyrimidine], 258 °C.
As for `N#Cc1ncn2c(C(F)(F)F)cc(-c3ccc(Cl)cc3Cl)nc12` [Example 5.7, 2-(2,4-Dichloro-phenyl)-4-trifluoromethyl-imidazo[1,5-a]pyrimidine-8-carbonitrile], the figure is 139 °C.
As for `Cc1cc(-c2cnn3c(C(F)(F)F)cc(-c4ccc(C(F)(F)F)cc4)nc23)cc(C)n1` [Example 4.23, 5-(4-Trifluoromethyl-phenyl)-3-(2,6-dimethyl-pyridin-4-yl)-7-trifluoromethyl-pyrazolo[1,5-a]pyrimidine], the figure is 257 °C.
`N#Cc1cnn2c(C(F)(F)F)cc(-c3ccc(Cl)c(Cl)c3)nc12` [Example 1.16, 5-(3,4-Dichloro-phenyl)-7-trifluoromethyl-pyrazolo[1,5-a]pyrimidine-3-carbonitrile] gave a melting point of 206 °C.
As for `Cc1cc(-c2cc(C(F)(F)F)n3ncc(-c4ccccn4)c3n2)ccc1Cl` [Example 4.5, 5-(4-Chloro-3-methyl-phenyl)-3-pyridin-2-yl-7-trifluoromethyl-pyrazolo[1,5-a]pyrimidine], the figure is 183 °C; as for `Cc1cc(-c2cnn3c(C(F)(F)F)cc(-c4ccc(Cl)c(C)c4)nc23)cc(C)n1` [Example 4.20, 5-(4-Chloro-3-methyl-phenyl)-3-(2,6-dimethyl-pyridin-4-yl)-7-trifluoromethyl-pyrazolo[1,5-a]pyrimidine], 254 °C.
